Source: publication PMC3469417, “Loss of Slc4a1b Chloride/Bicarbonate Exchanger Function Protects Mechanosensory Hair Cells from Aminoglycoside Damage in the Zebrafish Mutant persephone” (PLoS Genetics, 2012)

How the values were obtained:
[1] = target: T1, zebrafish Slc4a1b (zSlc4a1b) (Danio rerio, UniProt D1FTM8); assay: […]- influx in Xenopus oocytes; type: cell-based; details: 200 µM DIDS; inhibitor; bath Cl- 103.6 mM, pH 7.4; disodium salt
T1 construct: cRNA expressed in Xenopus laevis oocytes
T1 sequence (D1FTM8 61-851): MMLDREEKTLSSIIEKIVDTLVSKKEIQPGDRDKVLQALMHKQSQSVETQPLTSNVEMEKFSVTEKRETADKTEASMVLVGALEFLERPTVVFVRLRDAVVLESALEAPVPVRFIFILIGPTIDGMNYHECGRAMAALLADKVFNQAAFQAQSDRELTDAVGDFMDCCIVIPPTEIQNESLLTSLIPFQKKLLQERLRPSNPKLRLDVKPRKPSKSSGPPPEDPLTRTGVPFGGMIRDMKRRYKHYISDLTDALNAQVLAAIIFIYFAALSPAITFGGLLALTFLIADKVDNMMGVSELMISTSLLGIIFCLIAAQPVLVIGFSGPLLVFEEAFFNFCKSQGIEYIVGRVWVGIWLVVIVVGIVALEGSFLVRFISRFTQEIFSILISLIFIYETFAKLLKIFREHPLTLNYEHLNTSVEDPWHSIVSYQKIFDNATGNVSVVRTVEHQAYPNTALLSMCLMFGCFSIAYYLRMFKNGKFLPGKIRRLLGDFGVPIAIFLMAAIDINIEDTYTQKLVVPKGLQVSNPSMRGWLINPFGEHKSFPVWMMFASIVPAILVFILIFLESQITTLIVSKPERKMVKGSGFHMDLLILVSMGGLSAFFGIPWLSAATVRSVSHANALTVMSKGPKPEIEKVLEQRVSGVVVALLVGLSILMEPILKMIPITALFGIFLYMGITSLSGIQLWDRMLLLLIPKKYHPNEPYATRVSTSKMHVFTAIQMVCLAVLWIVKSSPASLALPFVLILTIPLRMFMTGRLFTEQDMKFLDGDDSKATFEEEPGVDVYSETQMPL

[2] = target: T2, human SLC4A1 (hSlc4a1) (Homo sapiens, UniProt P02730); assay: […]- influx in Xenopus oocytes; type: cell-based; details: 200 µM DIDS; inhibitor; bath Cl- 103.6 mM, pH 7.4; disodium salt
T2 construct: expressed in Xenopus laevis oocytes
T2 sequence (P02730 1-911): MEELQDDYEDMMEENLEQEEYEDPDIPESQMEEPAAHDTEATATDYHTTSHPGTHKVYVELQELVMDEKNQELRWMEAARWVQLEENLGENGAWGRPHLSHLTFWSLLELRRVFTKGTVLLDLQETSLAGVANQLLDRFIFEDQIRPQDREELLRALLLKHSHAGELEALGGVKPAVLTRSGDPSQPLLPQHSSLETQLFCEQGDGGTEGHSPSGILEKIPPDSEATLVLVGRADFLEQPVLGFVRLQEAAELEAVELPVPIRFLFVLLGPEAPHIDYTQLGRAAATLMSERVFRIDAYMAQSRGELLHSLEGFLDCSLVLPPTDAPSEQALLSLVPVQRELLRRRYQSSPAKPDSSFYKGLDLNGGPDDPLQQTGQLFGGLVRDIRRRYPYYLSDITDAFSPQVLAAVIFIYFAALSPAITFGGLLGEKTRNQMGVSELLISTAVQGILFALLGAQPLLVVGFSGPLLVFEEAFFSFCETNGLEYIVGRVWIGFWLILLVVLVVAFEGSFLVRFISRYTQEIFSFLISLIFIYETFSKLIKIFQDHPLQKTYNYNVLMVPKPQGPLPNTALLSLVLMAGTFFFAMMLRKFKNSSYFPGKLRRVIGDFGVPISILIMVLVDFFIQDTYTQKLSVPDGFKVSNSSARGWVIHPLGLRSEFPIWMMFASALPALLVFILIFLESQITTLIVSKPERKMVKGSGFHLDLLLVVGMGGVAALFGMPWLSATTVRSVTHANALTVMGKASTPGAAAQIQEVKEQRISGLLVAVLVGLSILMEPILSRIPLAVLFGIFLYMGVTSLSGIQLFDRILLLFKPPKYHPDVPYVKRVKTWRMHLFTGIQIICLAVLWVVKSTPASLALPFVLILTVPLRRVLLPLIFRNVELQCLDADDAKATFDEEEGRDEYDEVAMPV

## O=S(=O)(O)c1cc(N=C=S)ccc1/C=C/c1ccc(N=C=S)cc1S(=O)(=O)O [DIDS, 4,4′-diisothiocyano-2,2′-stilbenedisulfonic acid]
[1]
  36Cl- influx in Xenopus oocytes: zebrafish Slc4a1b and by human SLC4A1 was abolished by treatment with the disulfonic stilbene DIDS
[2]
  36Cl- influx in Xenopus oocytes: zebrafish Slc4a1b and by human SLC4A1 was abolished by treatment with the disulfonic stilbene DIDS
